Here are results for twelve compounds from PMC9655618 (Cancers, 2022).

Test [1] relates to glucocorticoid receptor (GR)-dependent transcriptional activity, MDA-kb2 cells. Kind of test: GR-mediated transcription, luciferase reporter in MDA-kb2 cells (dexamethasone). The note with it: DEX 100 nM.
Test [2] relates to T47D estrogen-depleted cells. Kind of test: E2-induced proliferation of estrogen-depleted cells (AUC of growth kinetics). The format is cell-based. The following applies: Homo sapiens, T47D, 240 h, read-out: AUC (%) EC50 (μM). As to the method: To monitor long-term growth, human ER+ BC (T47-D, MCF-7, MCF-7/BUS), ER+ endometrial (Ishiwaka, High Point, NC, USA), or non-malignant breast (MCF-10A) cells were seeded at 3000–6000 cells per well. […] When indicated, cells were estrogen-deprived in a 10DCC-FBS supplemented medium for one week. […] Cytotoxicity was monitored by using YOYO-1 (Invitrogen, Waltham, MA, USA). Cell proliferation and cytotoxicity were monitored by sequential real-time microphotographs in an IncuCyte HD real-time imaging system (Essen BioScience, Hertfordshire, UK) for 5–10 days. The area under the curve (AUC) was then analyzed to know both the kinetics and dose-effect relationships. […] Next, cells were treated with VEH (0.05% DMSO) or test compounds for 5–10 days. Spheroid size and cell cytotoxicity were recorded with the Incucyte SX5 Live-Cell Analysis Instrument (Sartorius AG, Göttingen, Germany). To calculate the spheroid growth area, confluence measurements were taken considering the largest brightfield object area (µm^2). Cytotoxicity was monitored by using YOYO-1 (Essen Bioscience, Hertfordshire, UK).

In test [3] the test system is alkaline phosphatase (ALP) activity in Ishikawa cells. Briefly: Alkaline phosphatase assay. In kind it is cell-based, human. The note with it: E2 10 nM. How it is done:
Human endometrium cells ([…]) were cultured in MEM without phenol red with Earle's Salts culture, which was supplemented with estrogen-deprived 10 DCC-FBS du-ring 5 days. […] Cells were washed with ice-cold PBS, and Alkaline Phosphatase (ALP) activity was measured by using ALP Assay Kit (Abcam, Cambridge, MA, USA). The substrate p-nitrophenyl phosphate (pNPP) and the ALP enzyme were used to detect ALP activity by the analysis of the optical density at 405 nm in the iMark microplate Reader (Bio-Rad, Irvine, CA, USA). […] Protein concentration was quantified with the bicinchoninic acid assay (BCA) kit (Bio-Rad).

The test system of test [4] is ERα-mediated transcription (3xERE-luciferase), T47D-KBluc cells. Briefly: ER-dependent transcriptional activity, 3xERE-luciferase reporter in T47D-KBluc cells. The note with it: for effect on E2-induced luciferase activity: until dropping to 20% Emax.
Another test concerns Hs-578T cells. Briefly: MTT cell viability assay. In kind it is cell-based, human. The note with it: Homo sapiens, Hs-578T, 72 h, 10%FBS growth media. As to the method:
(§1) Straightforward, the tetrazolium salt 3-(4,5-methyltiazol-2yl-)-2,5diphenyl-tetrazolium bromide (MTT) (Applichen, Darmstadt, Germany) was added to cells, incubated for 2–4 h at 37 °C, and lysed in 10% SDS.

A further test deals with Ishikawa cells. Briefly: MTT cell viability assay. The format is cell-based, human. The following applies: Homo sapiens, Ishikawa, read-out: IC50 (μM) ISHIKAWA, 72 h, 10%FBS growth media. As to the method: as §1
In the next test the test system is MCF-10A cells. Kind of test: MTT cell viability assay. The format is cell-based, human. The following applies: Homo sapiens, MCF-10A, 72 h, 10%FBS growth media. How it is done: as §1
In a further test the test system is MCF-7 cells. Kind of test: MTT cell viability assay. The following applies: Homo sapiens, MCF7, 72 h, 10%FBS growth media. The format is cell-based, human. How it is done:
as §1

The next test concerns MDA-MB-231 cells. Kind of test: MTT cell viability assay. The following applies: Homo sapiens, MDA-MB-231, 72 h, 10%FBS growth media. The format is cell-based, human. As to the method: as §1
The next test deals with SK-BR-3 cells. Kind of test: MTT cell viability assay. The format is cell-based, human. The following applies: Homo sapiens, SK-BR-3, 72 h, 10%FBS growth media. As to the method:
as §1

The subject of a further test is T47D cells. Kind of test: MTT cell viability assay. In kind it is cell-based, human. The following applies: Homo sapiens, T47D, 72 h, 10%FBS growth media. As to the method: Straightforward, the tetrazolium salt 3-(4,5-methyltiazol-2yl-)-2,5diphenyl-tetrazolium bromide (MTT) (Applichen, Darmstadt, Germany) was added to cells, incubated for 2–4 h at 37 °C, and lysed in 10% SDS. The mitochondrial metabolization of the tetrazolium salt was determined by the analysis of the optical density at 595 nm, measured with the iMark microplate Reader (Bio–Rad, Irvine, CA, USA).

For the next test, the system named is VERO cells. Kind of test: MTT cell viability assay. The format is cell-based, monkey. The following applies: Primates, Vero, 72 h, 10%FBS growth media. As to the method:
as §1

A further test concerns BT-549 cells. Kind of test: MTT cell viability assay. The format is cell-based, human. The note with it: Homo sapiens, BT-549, 72 h, 10%FBS growth media. As to the method:
as §1

The subject of a further test is MCF-7/BUS cells. Briefly: MTT cell viability assay. The format is cell-based, human. The following applies: Homo sapiens, MCF7/BUS, 72 h, read-out: IC50 (μM) MCF-7/BUS. As to the method: as §1

Like-named read-outs stand apart in the source and are kept apart here. Some results are limits rather than exact numbers.

Regarding `C[C@@H]1C[C@H]2[C@@H]3CCC4=CC(=O)C=C[C@]4(C)[C@@]3(F)[C@@H](O)C[C@]2(C)[C@@]1(O)C(=O)CO` [DEX, dexamethasone, reference compound], in [1], the “maximal luciferase activity or Emax” value came out at 42.07 ± 14.33 fold induction.
`C[C@]12CC[C@@H]3c4ccc(O)cc4CC[C@H]3[C@@H]1CC[C@@H]2O` [E2, 17β-estradiol, reference compound]: the EC50 in test [2] is 0.0071 nM; in [4] (Homo sapiens, read-out: EC50 of E2, ER-dependent transcriptional activity, E2 alone (E2+VEH)), 4.48 ± 0.42 pM; in [4] (read-out: EC50 of E2, ER-dependent transcriptional activity, E2 alone (E2+VEH)), 4.57 ± 0.42 pM. The “increase of ALP activity” value in test [3] was 30 fold. Further, the “maximal activity (Emax) reached by E2” value in test [4] (E2+VEH) is recorded as 104.90 ± 2.01%. For the same compound, the Emax in [4] (Homo sapiens, read-out: maximal activity (Emax) reached by E2, E2+VEH) was determined as 99.8 ± 8.44%. The “maximal luciferase activity or Emax” value in test [4] (induced by E2) worked out at 15.19 ± 1.71 fold induction.
In the case of `CCCc1c(-c2ccc(O)cc2)nn(-c2ccc(O)cc2)c1-c1ccc(O)cc1` [PPT, 1,3,5-tris(4-hydroxyphenyl)-4-propyl-1H-pyrazole, reference compound], the EC50 in test [2] is 0.157 nM.
For the compound `O=C1C(c2ccccc2)=CC(O)(c2ccccc2)N1C1CCCCC1` (centres unmarked) [compound 4, 1-cyclohexyl-5-hydroxy-3,5-diphenyl-1H-pyrrol-2(5H)-one], the IC50 was greater than 10 µM in the test on Hs-578T cells; greater than 10 µM in the test with Ishikawa cells; 7.17 ± 2.07 µM in the test on MCF-10A cells; greater than 10 µM in the test on MCF-7 cells; greater than 10 µM in the test on MDA-MB-231 cells; greater than 10 µM in the test with SK-BR-3 cells. The IC50 in the test with T47D cells was greater than 10 µM; in the test with VERO cells, greater than 25 µM. Moreover, the “effect on E2-induced luciferase activity” value in test [4] is given as “reduced E2-induced luciferase activity”.
`COc1ccc(C2(O)C=C(c3ccccc3)C(=O)N2Cc2ccccc2)cc1` (centres unmarked) [compound 8, 1-benzyl-5-hydroxy-5-(4-methoxyphenyl)-3-phenyl-1H-pyrrol-2(5H)-one]: in [4], the “effect on E2-induced luciferase activity” value is “reduced E2-induced luciferase activity”.
Regarding `COc1ccc(N2C(=O)C(c3ccccc3)=CC2(O)c2ccc(OC)cc2)cc1` (centres unmarked) [compound 9, 5-hydroxy-1,5-bis(4-methoxyphenyl)-3-phenyl-1H-pyrrol-2(5H)-one], the IC50 with BT-549 cells, in the test with Hs-578T cells, in the test on MCF-7 cells, with MCF-7/BUS cells, with MDA-MB-231 cells and in the test on SK-BR-3 cells was greater than 10 µM each time. The same compound gave an IC50 in the test on T47D cells greater than 10 µM.
For `COc1ccc(C2=CC(O)(c3ccccc3)N(C3CCCCC3)C2=O)cc1F` (centres unmarked) [compound 16, 1-cyclohexyl-3-(3-fluoro-4-methoxyphenyl)-5-hydroxy-5-phenyl-1H-pyrrol-2(5H)-one], the IC50 with BT-549 cells, in the test with Hs-578T cells, in the test with Ishikawa cells, in the test on MCF-7 cells, with MCF-7/BUS cells and in the test on MDA-MB-231 cells was greater than 10 µM throughout. Further, the IC50 in the test on SK-BR-3 cells and with T47D cells was greater than 10 µM in each case. For the same compound, in test [4] (10 μM, absence of E2), the “estrogenic effect on ER-dependent transcriptional activity” value is reported as “partial induction of ER-dependent transcriptional activity”.
For the compound `O=C1C(c2ccc3c(c2)OCO3)=CC(O)(c2ccccc2)N1Cc1ccccc1` (centres unmarked) [compound 26, 3-(benzo[d][1,3]dioxol-5-yl)-1-benzyl-5-hydroxy-5-phenyl-1H-pyrrol-2(5H)-one], the IC50 in the test with Hs-578T cells is greater than 10 µM; in the test with Ishikawa cells, 10.1 ± 0.11 µM; in the test with MCF-7 cells, greater than 10 µM; in the test on MDA-MB-231 cells, 9.71 ± 0.3 µM; in the test with SK-BR-3 cells, greater than 10 µM; in the test with T47D cells, greater than 10 µM. For the same compound, the “effect on E2-induced luciferase activity” value in [4] is on record as “reduced E2-induced luciferase activity”.
Take `COc1ccc(N2C(=O)C(c3cccc([N+](=O)[O-])c3)=CC2(O)c2cccc(OC)c2)cc1` (centres unmarked) [compound 38, 5-hydroxy-5-(3-methoxyphenyl)-1-(4-methoxyphenyl)-3-(3-nitrophenyl)-1H-pyrrol-2(5H)-one]: the IC50 in the test on Hs-578T cells, in the test with Ishikawa cells, in the test on MCF-10A cells, in the test on MCF-7 cells, in the test on MDA-MB-231 cells and in the test on SK-BR-3 cells was greater than 10 µM throughout. Moreover, the IC50 in the test with T47D cells was greater than 10 µM; in the test with VERO cells it was greater than 25 µM. For the same compound, the “effect on E2-induced luciferase activity” value in [4] is “reduced E2-induced luciferase activity”.
For `COc1ccc(C2=CC(O)(c3cccc([N+](=O)[O-])c3)N(Cc3ccccc3)C2=O)cc1` (centres unmarked) [compound 40, 1-benzyl-5-hydroxy-3-(4-methoxyphenyl)-5-(3-nitrophenyl)-1H-pyrrol-2(5H)-one], the “effect on E2-induced luciferase activity” value in test [4] was “reduced E2-induced luciferase activity”.
For `COc1cccc(C2=CC(O)(c3ccc([N+](=O)[O-])cc3)N(Cc3ccccc3)C2=O)c1` (centres unmarked) [compound 46, 1-benzyl-5-hydroxy-3-(3-methoxyphenyl)-5-(4-nitrophenyl)-1H-pyrrol-2(5H)-one], the “effect on E2-induced luciferase activity” value in test [4] was “reduced E2-induced luciferase activity”.
With `COc1ccc(N2C(=O)C(c3ccccc3OC)=CC2(O)c2ccc([N+](=O)[O-])cc2)cc1` (centres unmarked) [compound 50, 5-hydroxy-3-(2-methoxyphenyl)-1-(4-methoxyphenyl)-5-(4-nitrophenyl)-1H-pyrrol-2(5H)-one], the IC50 in the test on MCF-7 cells is 6.17 ± 2.66 µM; in the test on SK-BR-3 cells, greater than 10 µM. The “effect on E2-induced luciferase activity” value in [4] was “reduced E2-induced luciferase activity”.
